In one series the test system is osteoclast formation. As to conditions: in vitro assay; from WO 2005/000404; read-out: inhibitory activity against osteoclast formation, IC50; cited from earlier work.
Series [1] in a line: plasma protein binding, dog. The class given is in vitro ADME. Particulars: read-out: bound to plasma proteins. How it is done: (§1) In embodiments, the apilimod compound for use in the compositions and methods of the invention is the free base or dimesylate salt form, MW 610.7 (dimesylate salt); tPSA 83.1; pKa 5.39 (±0.03), 4.54 (±0.27); HBD 1. […] In embodiments, the apilimod compound for use in the compositions and methods of the invention is an active metabolite of apilimod. Six primary metabolites were identified in rat and human microsomal and hepatocyte stability studies. […] Tmax generally occurred within 1 or 2 hours after the oral dose, consistent with the […] of this compound from the circulation. […] The primary metabolites are short-lived in circulation. Both apilimod free base and the dimesylate salt are highly bound (>99%) to rat, dog and human plasma proteins.

For the next series, the target named is CYP3A4 (Homo sapiens, UniProt P08684). As to the kind of experiment: reaction phenotyping studies, CYP3A4. The format is in vitro ADME. The procedure: as §1
Chain of CYP3A4 (P08684 whole entry): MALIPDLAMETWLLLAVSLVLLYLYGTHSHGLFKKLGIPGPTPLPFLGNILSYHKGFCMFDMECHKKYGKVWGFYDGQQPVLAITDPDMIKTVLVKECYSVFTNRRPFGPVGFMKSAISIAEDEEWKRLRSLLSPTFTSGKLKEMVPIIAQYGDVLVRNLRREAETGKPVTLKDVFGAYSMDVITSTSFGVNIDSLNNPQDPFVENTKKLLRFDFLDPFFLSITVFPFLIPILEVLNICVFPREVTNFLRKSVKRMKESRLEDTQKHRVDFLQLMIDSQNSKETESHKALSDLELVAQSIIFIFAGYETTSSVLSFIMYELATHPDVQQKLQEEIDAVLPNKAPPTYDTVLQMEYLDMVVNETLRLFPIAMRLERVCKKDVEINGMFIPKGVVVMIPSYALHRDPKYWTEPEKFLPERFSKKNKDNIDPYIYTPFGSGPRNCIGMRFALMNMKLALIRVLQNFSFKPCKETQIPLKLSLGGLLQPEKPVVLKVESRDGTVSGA
The nature of series [2]: plasma protein binding, rat. The class given is in vitro ADME. How it is done:
as §1

The subject of a further series is NPC1 fibroblasts. As to the kind of experiment: HexB release lysosome exocytosis assay. The format is cell-based, human. As to conditions: 24 hours treatment; FIG. 3. How it is done: NPC1 mutant patient skin fibroblasts have been used as a robust cellular model of NPC1 disease (Chen 2010, Xu M et al 2012, Xu M et al 2014) and these cells display a number of NPC-related defects including intracellular accumulation of cholesterol other lipids.
FIG. 3: the rate of lysosome exocytosis can be monitored by the measurement of the release of lysosomal proteins such as Hexosaminidase Subunit Beta(HexB). In FIG. 3, NPC1 fibroblasts were treated with apilimod for 24 hours, the HexB release lysosome exocytosis assay was performed as previously described (Xu et al 2012). The rate of HexB release from NPC1 was increased by apilimod treatment providing evidence for an increased rate of lysosome exocytosis likely leading to cholesterol lowering in NPC1 cells.
Shown in the figure are fluorescence microscopy images of the NPC1 cells treated with 0, 78, 156, and 625 nM apilimod. […] In FIG. 3, apilimod treatment of NPC1 fibroblasts can enhance the rate of lysosome exocytosis as one of the mechanisms for cells to clear lysosome storage of cholesterol and lipid accumulations in NPC.

The nature of series [3]: plasma protein binding, human. The format is in vitro ADME. Particulars: read-out: bound to plasma proteins. The procedure:
as §1

In general, IC50 refers to the concentration that gives 50% inhibition. As for `Cc1cccc(/C=N/Nc2cc(N3CCOCC3)nc(OCCc3ccccn3)n2)c1` [apilimod], in the series with osteoclast formation, the concentration for half-maximal inhibition (IC50) was 0.015 µM. Moreover, the fraction unbound in series [1], in series [2] and in series [3] was less than 0.01 each time. For the same molecule, at CYP3A4, the “contribution of CYP3A4 to metabolism” value is “contribute to metabolism”. For the same molecule, in the series on NPC1 fibroblasts, the “rate of HexB release (lysosome exocytosis)” value was “increased”.

The record behind these values is US20200306255A1, “COMPOSITIONS AND METHODS FOR TREATING NIEMANN PICK C DISEASE” (AI Therapeutics, Inc., priority 2016, published 2020).
